{"source": "patent US11213522B2", "about": "“Autoimmune-induced glutamatergic receptor dysfunction methods and treatments” (SARAH HERZOG MEMORIAL HOSPITAL EZRAT NASHIM ASSOCIATION, priority 2013, dated 2022)", "key": {"[1]": {"system": "patient positive for anti-NR1 NMDAR antibodies", "experiment": "Flanker Task", "type": "in vivo, human", "settings": "post-6 weeks D-serine", "procedure": "The trial consisted of two periods, starting with a 2 week lead-in/stabilization period (−2-0) following which the patient was entered in the second period of the study which consisted of a 6 week (0-6), open-label, fixed dose therapy phase. During this phase, the patient received adjuvant treatment with DSR, whose dose was increased from 1500 mg/day (week 1) to 2000 mg/day (weeks 2 and 3) to 3000 mg/day (weeks 4 and 5) and to 4000 mg/day (week 6). The doses of the ongoing medication received by the patient remained fixed throughout the study and no changes in medication were performed.\nIn addition, cognitive performance was assessed pre- and post DSR treatment. For this purpose, a 1.5-hour neurocognitive assessment battery (nine computerized and two paper/pencil tests) was employed that measures accuracy and speed of performance in major cognition domains, including attention/vigilance, planning, short-term and working memory, decision making, abstraction and mental flexibility. All the tests were formatted like games and puzzles, and were administered to the patient as part of the comprehensive neuropsychiatric assessment at baseline and the end of study. The neurocognitive battery included the 1) Test of Attentional Vigilance (TOAV, (Forbes, 1998, Journal of Clinical Psychology 54:461-476; Greenberg, 1993, Journal of Child Psychology and Psychiatry 34: 1019-30)); 2) Tower of London (TOL, (Shailice, 1982, Specific impairments of planning Philosophical Transactions of the Royal Society of London. Series B, Biological Sciences 298:199-209); 3-4) Digit Span Test (DST, forward and backward (Wechsler 1997, The Wechsler adult intelligence scale-III. San Antonio, Tex.: Psychological Corporation; Kaplan 1991, The WAIS-R as a neuropsychological instrument. San Antonio, Tex.: The Psychological Corporation; Lamar et al., 2007, Neuropsychologia 45:245-54; Lamar et al., 2008, Neuropsychologia 46:2597-601)); 5-6) Corsi Block Tapping Test (CBTT, forward and backward, (Corsi, 1972, Dissertation Abstracts International. 34:819B; Kessels et al., 2000, Applied Neuropsychology 7:252-58, Kessels et al., 2008, Assessment 15:426-34)); 7) Flanker Task (Erikson and Eriksen, 1974; Perception & Psychophysics 25: 249-63, Stins et. al., 2007, Advances in Cognitive Psychology 3:389-96); 8) Time Wall (Perez et al., 1987, Unified Tri-services cognitive performance assessment battery: review and methodology; DTIC Document ADA181697, http://www.dtic.mil/dtic/tr/fulltext/u2/a81697.pdf); and Wisconsin Card Sort Test (WCST, (Berg, 1948, J Gen Psychol39:15-22; Nelson, 1976, Cortex 12:313-24)). In addition to the nine computerized tests, the patient completed two paper/pencil tests: 10-11) part A and part B of the Trail-Making-Test (TMT, (Reitan, 1958, Percept. Mot Skills 8:271-76; Reitan, 1992 Trail Making Test: Manual for administration and scoring. Tucson, Ariz.: Reitan Neuropsychology Laboratory)) according to the guidelines presented by Spreen and Strauss (1998)). All neurocognitive testing was completed in a private and quiet setting to limit any distractions."}, "[2]": {"system": "patient positive for anti-NR1 NMDAR antibodies", "experiment": "Simpson Angus Scale for Extrapyramidal Symptoms (SAS), D-serine clinical trial", "type": "in vivo, human", "settings": "week 0 score 5", "from_the_text": "Out of the seventeen patients that entered the study, the serum of one patient was strongly positive at both serum sample dilutions for the presence of both IgG and IgM classes of anti-NR1 NMDAR antibodies. The patient was a single person having a diagnosis of schizophrenia according to DSM-IV-R criteria (American Psychiatric Association, 2000 Diagnostic and Statistical Manual of Mental Disorders-(DSM-IV-TR), 4th edition. American Psychiatric Association Washington D.C. (Text Revision)). There was no history of mental disorder in the patient's family. The patient had completed post-high school studies and had worked as a secretary. After a period of continuous headaches, for which no organic basis had been found, they had abruptly developed an acute psychosis characterized by grandiose and paranoid delusions, mystical thinking, […] affect and agitation, They had been hospitalized in a psychiatric hospital and underwent treatment with antipsychotic drugs and electroconvulsive therapy with only partial response. The patient had never returned to their previous functional and except for short attempts at living in the community, has been hospitalized ever since. They have been refractory to treatment with various classes of antipsychotic drugs, was not diagnosed with any medical or neurological disorder and was maintained on sulpiride 50 mg/day, citalopram 40 mg/day, lorazepam 1 mg/day and promethazine 50 mg/day. […] DSR is a naturally occurring amino acid that acts in vivo as an obligatory co-agonist at the glycine modulatory site associated with NMDAR. […] Both acute and chronic administration of 1-2 g DSR in humans is known to result in ≥100 times increases in DSR serum levels (Kantrowitz et al., 2010, Schizophr Res121:125-30; Heresco-Levy et al., 2005, Biol Psychiatry 57:577-85). […] In conjunction with UKU ratings, patient's vital signs and body weight were monitored throughout the study."}}, "data": [{"smiles": "N[C@H](CO)C(=O)O", "note": "[D-serine]", "values": [{"measurement": "Flanker Task Incongruous accuracy, mean ± SD", "setting": "[1]; pre-treatment 0.450 ± 0.499", "value": "0.575 ± 0.494", "unit": "proportion correct"}, {"measurement": "Flanker Task Congruous accuracy, mean ± SD", "setting": "[1]; pre-treatment 0.475 ± 0.499", "value": "0.65 ± 0.476", "unit": "proportion correct"}, {"measurement": "Flanker Task Neutral accuracy, mean ± SD", "setting": "[1]; pre-treatment 0.475 ± 0.499", "value": "0.65 ± 0.476", "unit": "proportion correct"}, {"measurement": "Flanker Task Congruous response time, mean ± SD", "setting": "[1]; pre-treatment 725.03 ± 130.03", "value": "651.93 ± 130.16", "unit": "milliseconds"}, {"measurement": "Flanker Task Neutral response time, mean ± SD", "setting": "[1]; pre-treatment 732.18 ± 127.96", "value": "688.23 ± 99.19", "unit": "milliseconds"}, {"measurement": "Flanker Task Incongruous response time, mean ± SD", "setting": "[1]; pre-treatment 737.38 ± 131.34", "value": "713.3 ± 102.14", "unit": "milliseconds"}, {"measurement": "SAS", "setting": "[2]; study week 2", "value": 4}, {"measurement": "SAS", "setting": "[2]; study week 4", "value": 4}, {"measurement": "SAS", "setting": "[2]; study week 6", "value": 3}]}]}
